Source: paper PMC6631119, “Nasal Administration and Plasma Pharmacokinetics of Parathyroid Hormone Peptide PTH 1-34 for the Treatment of Osteoporosis” (Pharmaceutics, 2019)
Read-outs that look alike come from different tables or passages of the source.

Experiments:
[1] = Healthy human volunteer plasma pharmacokinetics of PTH 1-34 (open cross-over, ELISA); assay type: in vivo
Procedure: An open cross-over clinical IMP (investigative medicinal product) study was conducted in seven healthy female subjects aged over 55 years (mean age 67.7, range 58 to 81 years). Each participant provided informed consent in accordance with ethical committee requirements and good clinical practice. Pre-study screening assessments were carried out within 21 days of the participants receiving their first dose (Supplementary Materials: Section S1). Inclusion and exclusion criteria were applied (Supplementary Materials: Section S2). Participants were admitted to the study centre on the morning of dosing, having abstained from alcohol and smoking for at least 24 h previously and fasted from midnight. Participants were given a light meal on arrival. A cannula was then positioned in the participant’s arm or hand to facilitate the collection of blood samples. The pre-dose sample was taken. Participants received a single subcutaneous injection of 20 μg teriparatide into the abdomen at their first trial visit. Following a seven day wash out period, each participant self-administered 90 μg PTH 1-34 from the nasal spray formulation using the Rexam SP270 nasal spray device; the patients had previously been trained in operation of the Rexam device. Any episodes of sneezing after administration of the nasal formulation were recorded. The nasal spray formulation contained Tc-99m-DTPA, 3–5 MBq per Rexam SP270 nasal spray dose, resulting in an effective radiation dose of less than 0.14 mSv to each participant.
Following either subcutaneous or intranasal dosing, 10 mL blood samples (Becton Dickinson sodium heparin) were taken at 5, 15, 30, 60 120, 180, 240, 300 and 360 min. After each sample was taken, the cannula was flushed with 10 mL 0.9% saline. Blood was stored on ice and centrifuged within 30 min to prepare plasma (4 °C, 1100–1300 g, 10 min). These samples were stored at −20 °C before dispatching to Simbec Research Ltd. (Merthyr Tydfil, UK) for quantification by validated ELISA, in compliance with The UK Good Laboratory Practice Regulations 1999 (Statutory Instrument No. 310 6) and subsequent amendment, OECD Principles of Good Laboratory Practice (Paris 1998) and EC Commission Directive 2004/10/EC of February 2004.
Pharmacokinetic data were analysed using Phoenix® WinNonlin® 5.1 (Certara USA, Inc., Princeton, NJ, USA) from quantified PTH 1-34 in the plasma, using recorded sampling times. Summary statistics (mean, median, SD, coefficient of variation [CV%], minimum, maximum, n) and the following plasma pharmacokinetic parameters were calculated: • Cmax • Tmax • Terminal half-life (t1/2) • AUC to 2 h (AUC0–2h) • AUC to last measured time point (AUClast) and corresponding Frel for nasal formulation

[2] = HPLC integrity of spray dried PTH 1-34; assay type: physicochemical; details: spray dried dry powder formulations during formulation development, inlet 85 °C
Procedure: The dry powder formulation was also prepared at CPL as 1% w/w PTH (1-34) with 39% Gellan gum, 40% Solutol® HS15, 20% Trehalose. In brief, 97.5 mg Gellan gum was dissolved in 50 mL ultra-pure water overnight. Solutol® HS15 was rendered molten (60 ± 10 °C), and 100 mg was added to the Gellan gum solution and mixed for 30–45 min at 60 °C. 50 mg of trehalose was added and mixed for a further 10 min. A total 5 mg of PTH 1-34 was dissolved in 5 mL of ultra-pure water, and 2.5 mL was added to the formulation. Particles were prepared using a spray dryer Mini Spray Dryer B-290 (Buchi UK Ltd., Oldham, UK) with the inlet set at 85 °C (outlet modified by inlet temperature), the aspirator 100%, the pump set at 006 equivalent to 2 mL/ min, the spray pressure at 4 bar. Particle size of the dry powder formulation manufactured for use in the sheep was not measured, due to limited availability of material due to batch size. However, the particle size of similar formulations when prepared for loading into the delivery devices was monitored using Helos/BF (Sympatec GmbH, Clausthal-Zellerfeld, Germany) during formulation development, where the VMD was 73.7–91.8 µm (×10 = 10.6–23.7 µm, ×50 = 51.5–98.1 µm, ×90 = 142–153 µm). A total 2.4–2.8% of particles were below 10 µm. As the vast majority of particles were >10 µm, the formulations would be expected to be nasally deposited.

[3] = healthy female volunteers aged over 55 y, single 20 μg teriparatide subcutaneous injection into abdomen (Forsteo pen), plasma ELISA, mean of n = 7

F rel ([1]; female, plasma, inhaled or intranasal, 90 ug, human, 90 μg intranasal vs 20 μg subcutaneous, all seven subjects included in the calculation, read-out: bioavailability after intranasal dosing compared to subcutaneous injection of Forsteo): 0.26%
Cmax [1, 3]: 253 pg/mL
t½ [1, 3]: 65 min
bioavailability after intranasal dosing compared to subcutaneous injection of Forsteo ([1]; human, 90 μg intranasal vs 20 μg subcutaneous, only the subjects with measurable plasma concentrations): approximately 1%
Tmax ([1]; human, inhaled or intranasal, 90 ug, healthy female volunteers aged over 55 y, single 90 μg PTH 1-34 intranasal liquid spray with 7.5% w/v Solutol HS15 (Rexam SP270), plasma ELISA, mean of n = 7, not detectable in 5 of 7): 9 min
Cmax ([1]; human, inhaled or intranasal, 90 ug, healthy female volunteers aged over 55 y, single 90 μg PTH 1-34 intranasal liquid spray with 7.5% w/v Solutol HS15 (Rexam SP270), plasma ELISA, mean of n = 7, not detectable in 5 of 7, read-out: Cmax): 5 pg/mL
integrity of the spray dried PTH 1-34: purity by HPLC [2]: > 82.5%
Structure (SMILES): CC[C@H](C)[C@H](NC(=O)[C@H](CCC(=O)O)NC(=O)[C@H](CO)NC(=O)[C@@H](NC(=O)[C@@H](N)CO)C(C)C)C(=O)N[C@@H](CCC(N)=O)C(=O)N[C@@H](CC(C)C)C(=O)N[C@@H](CCSC)C(=O)N[C@@H](Cc1cnc[nH]1)C(=O)N[C@@H](CC(N)=O)C(=O)N[C@@H](CC(C)C)C(=O)NCC(=O)N[C@@H](CCCCN)C(=O)N[C@@H](Cc1cnc[nH]1)C(=O)N[C@@H](CC(C)C)C(=O)N[C@@H](CC(N)=O)C(=O)N[C@@H](CO)C(=O)N[C@@H](CCSC)C(=O)N[C@@H](CCC(=O)O)C(=O)N[C@@H](CCCN=C(N)N)C(=O)N[C@H](C(=O)N[C@@H](CCC(=O)O)C(=O)N[C@@H](Cc1c[nH]c2ccccc12)C(=O)N[C@@H](CC(C)C)C(=O)N[C@@H](CCCN=C(N)N)C(=O)N[C@@H](CCCCN)C(=O)N[C@@H](CCCCN)C(=O)N[C@@H](CC(C)C)C(=O)N[C@@H](CCC(N)=O)C(=O)N[C@@H](CC(=O)O)C(=O)N[C@H](C(=O)N[C@@H](Cc1cnc[nH]1)C(=O)N[C@@H](CC(N)=O)C(=O)N[C@@H](Cc1ccccc1)C(=O)O)C(C)C)C(C)C [PTH 1-34, PTH 1-34 acetate]
